{"source": "patent US20070190554A1", "about": "“Novel binding site for retigabine on KCNQ5” (priority 2006, published 2007)", "key": {"[1]": {"molecular_target": "KCNQ5 containing an S5-S6 transmembrane domain from KCNQ1 (Homo sapiens, UniProt Q9NR82, A261I/A269T/A329S/A332S/F282Y/G330C/G335A/I307V/INS291VNESG/K264Q/K293V/L283F/L309V/L320Q/L323V/L326T/L327I/L333V/L334F/N292R/R325K/S263R/S296G/S328A/T297S/T306V/T318V/V276G/V287A/W270L/Y260F)", "sequence (Q9NR82 other isoform, or with tags, fused parts or gaps with the stated changes)": "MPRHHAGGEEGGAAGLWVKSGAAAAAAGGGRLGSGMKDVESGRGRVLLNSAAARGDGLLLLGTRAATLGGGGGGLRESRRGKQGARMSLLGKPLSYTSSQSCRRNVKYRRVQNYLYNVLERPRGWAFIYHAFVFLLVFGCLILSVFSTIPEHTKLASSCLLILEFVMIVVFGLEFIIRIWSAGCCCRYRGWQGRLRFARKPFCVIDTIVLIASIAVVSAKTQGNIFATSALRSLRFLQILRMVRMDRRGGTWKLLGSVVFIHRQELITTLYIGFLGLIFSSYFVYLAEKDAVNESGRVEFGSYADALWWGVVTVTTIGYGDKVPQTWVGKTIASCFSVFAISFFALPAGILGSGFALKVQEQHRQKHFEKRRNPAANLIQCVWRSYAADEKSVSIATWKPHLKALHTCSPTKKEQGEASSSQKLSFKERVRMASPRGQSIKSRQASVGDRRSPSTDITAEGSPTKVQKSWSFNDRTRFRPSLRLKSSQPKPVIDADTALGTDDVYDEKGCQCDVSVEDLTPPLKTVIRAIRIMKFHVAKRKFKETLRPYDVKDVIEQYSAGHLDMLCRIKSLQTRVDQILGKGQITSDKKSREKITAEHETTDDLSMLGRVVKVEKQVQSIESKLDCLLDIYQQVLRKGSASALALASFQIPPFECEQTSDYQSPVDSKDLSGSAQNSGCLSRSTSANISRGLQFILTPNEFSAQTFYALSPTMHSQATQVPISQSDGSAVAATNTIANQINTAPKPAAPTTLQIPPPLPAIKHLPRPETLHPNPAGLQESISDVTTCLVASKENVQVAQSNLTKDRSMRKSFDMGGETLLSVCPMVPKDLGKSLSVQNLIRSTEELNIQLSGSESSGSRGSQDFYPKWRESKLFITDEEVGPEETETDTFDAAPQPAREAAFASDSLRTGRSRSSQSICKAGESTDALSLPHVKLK", "settings": "50 μM retigabine", "from_the_text": "Differences were considered to be significant at P<0.05.\nAll mutations were confirmed by DNA sequencing."}, "KCNQ5(W270L)": {"molecular_target": "T1, KCNQ5(W270L) (Homo sapiens, UniProt Q9NR82, W270L)", "T1 construct": "expressed in transfected cells; host or cells: Xenopus oocytes injected with cRNA", "T1 sequence (Q9NR82 whole entry W270L, the tested form may be a part)": "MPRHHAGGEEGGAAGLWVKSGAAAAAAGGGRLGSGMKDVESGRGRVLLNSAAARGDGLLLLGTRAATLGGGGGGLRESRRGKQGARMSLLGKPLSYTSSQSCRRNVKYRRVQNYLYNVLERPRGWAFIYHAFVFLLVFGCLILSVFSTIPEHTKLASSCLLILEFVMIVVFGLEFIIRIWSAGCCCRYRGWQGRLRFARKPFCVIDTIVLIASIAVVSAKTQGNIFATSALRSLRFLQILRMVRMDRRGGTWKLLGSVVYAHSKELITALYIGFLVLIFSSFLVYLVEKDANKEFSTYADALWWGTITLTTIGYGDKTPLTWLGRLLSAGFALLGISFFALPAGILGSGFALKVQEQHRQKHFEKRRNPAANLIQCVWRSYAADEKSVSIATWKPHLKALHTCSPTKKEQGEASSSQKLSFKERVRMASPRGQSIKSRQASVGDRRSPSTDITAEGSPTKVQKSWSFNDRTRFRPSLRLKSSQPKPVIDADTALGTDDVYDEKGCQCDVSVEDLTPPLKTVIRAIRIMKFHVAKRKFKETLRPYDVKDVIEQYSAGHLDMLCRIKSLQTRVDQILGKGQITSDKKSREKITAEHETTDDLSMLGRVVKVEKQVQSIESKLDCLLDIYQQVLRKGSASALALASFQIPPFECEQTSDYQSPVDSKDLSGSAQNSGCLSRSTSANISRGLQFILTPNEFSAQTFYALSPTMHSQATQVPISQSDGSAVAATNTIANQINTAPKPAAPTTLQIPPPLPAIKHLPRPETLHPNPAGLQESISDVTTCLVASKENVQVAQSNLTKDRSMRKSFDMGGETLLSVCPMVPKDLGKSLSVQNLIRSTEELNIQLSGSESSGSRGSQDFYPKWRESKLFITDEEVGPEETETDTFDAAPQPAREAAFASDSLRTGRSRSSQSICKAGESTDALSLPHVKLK", "assay": "Two-electrode voltage clamp in Xenopus oocytes, S5 point mutant KCNQ5(W270L)", "assay_type": "cell-based", "settings": "50 μM retigabine; FIG. 3 bottom panel", "experimental": "(§1) FIG. 3 Mutagenesis analysis of S5 domain in KCNQ5. Sequence alignment of all five members in KCNQ family is shown on the top. The most diverse residues between KCNQ1 and the other members are highlighted in bold case and the corresponding residues in KCNQ5 were individually mutated to their counterparts in KCNQ1. Then each mutant with single mutation was tested with 50 μM retigabine and the fold increase (IΔ/I0) in current amplitude was plotted in the graph on bottom. In all mutants, n equals 6.\n(§2) The gene sequences were confirmed by DNA sequencing. […] Electrophysiological recording was performed 3-7 days after injection.\n(§3) The S5 domains of all five KCNQ members were sequence aligned and searched for unique amino acid residues that might account for the lack of KCNQ1's response to retigabine. As shown in FIG. 3 upper panel, there are ten unmatched residues between KCNQ1 and KCNQ5. Seven of them highlighted in FIG. 3 may be unique for KCNQ1. Therefore, mutations in KCNQ5 were generated for each of 7 residues modified individually to the corresponding in KCNQ1. One mutant, KCNQ5(F282Y) lost its functionality when expressed in oocytes. […] Retigabine's effect on each of these mutants was then tested."}, "KCNQ5(A269T)": {"molecular_target": "T2, KCNQ5(A269T) (Homo sapiens, UniProt Q9NR82, A269T)", "T2 construct": "mutations in KCNQ5 were generated for each of 7 residues modified individually to the corresponding in KCNQ1; expressed in transfected cells; host or cells: Xenopus oocytes injected with cRNA", "T2 sequence (Q9NR82 whole entry A269T)": "as the sequence (Q9NR82 whole entry W270L, the tested form may be a part) above, with A269T, L270W counted along it", "assay": "Two-electrode voltage clamp in Xenopus oocytes, S5 point mutant KCNQ5(A269T)", "assay_type": "cell-based", "settings": "50 μM retigabine; FIG. 3 bottom panel", "experimental": "as §1, §2, §3"}, "[2]": {"molecular_target": "KCNQ5 containing an S5 transmembrane domain from KCNQ1 (Homo sapiens, UniProt Q9NR82, A261I/A269T/F282Y/K264Q/L283F/S263R/V276G/V287A/W270L/Y260F)", "sequence (Q9NR82 whole entry Y260F/A261I/S263R/K264Q/A269T/W270L/V276G/F282Y/L283F/V287A, the tested form may be a part)": "as the sequence (Q9NR82 whole entry W270L, the tested form may be a part) above, with Y260F, A261I, S263R, K264Q, A269T, V276G, F282Y, L283F, V287A counted along it", "settings": "50 μM retigabine", "procedure": "Expression of KCNQ5 and KCNQ1 channels into Xenopus oocytes—Human KCNQ5 and KCNQ1 genes were cloned into a pKSM vector that has been engineered specifically for oocyte expression. […] Xenopus oocytes were injected with 46 nl solution containing approximately 9.2 ng cRNA using a Drumond Nanojet oocyte injector (Drummond Scientific Co., Broomall, Pa.). Electrophysiological recording was performed 3-7 days after injection.\nElectrophysiology—All experiments were performed at room temperature (22-23° C.) using conventional oocyte two-electrode voltage clamp recording (TEVC). The recording electrodes were pulled from 1.5 mm glass pipette using a Sutter P-97 micropipette puller (Sutter Instrument, Novato, Calif.) and filled with 3M KCl. The pipette tip was carefully broken off to acquire the electrode resistance at 0.5-1 Mohm. A Dagan CA-1 amplifier (Dagan Corporation, Minneapolis Minn.) was used and the holding potential was clamped at −100 mV. To test voltage dependence of channel activation, a series of depolarized voltage pulses was applied. To observe the time course of retigabine's effect, a single (3 sec) voltage pulse at 40 mV was applied repeatedly at 15 sec intervals. A HEKA computer interface (HEKA Elektronik, Lambrecht, Germany) with Pulse 8.5 software was used to control the amplifier and digitized the data for analysis. Solutions and Chemicals—ND96 solution containing (in mM) NaCl, 96, KCl, 2, CaCl2, 1.8, MgCl2, 1, HEPES, 10 was used for oocyte incubation and recording. Retigabine was made as a stock solution in DMSO at 50 mM and diluted into desired concentrations just before application in experiments. […] In all experiments, DMSO was used less than 0.4%.\nCompounds were applied to the cells via a fast bath perfusion system (ALA Scientific Instruments, Westbury, N.Y.), and a bath solution change was completed within 10 seconds.\nData analysis—Current amplitude was measured online using HEKA Pulsefit 8.5 software. To acquire channel conductance from macroscopic current, the K^+ reversal potential was approximated to be −80 mV in ND96 solution and the following equation was applied: G=I/(V+80), where G is the whole oocyte conductance, I is the whole oocyte current, and V is the voltage used to induce the current. Data were expressed as mean±SE, and the paired student t test was performed. Differences were considered to be significant at P<0.05.\nTo further dissect the action site of retigabine, the S5-S6 transmembrane domain from KCNQ1 was divided into two parts, the S5 transmembrane domain and the S6 transmembrane domain (with linker), and the corresponding chimeric channels of KCNQ5 contained S5 transmembrane domain or S6 transmembrane domain from KCNQ1."}, "KCNQ1 wild-type": {"molecular_target": "KCNQ1 wild-type (Homo sapiens, UniProt P51787)", "settings": "FIG. 4A", "source_text": "The steady state amplitudes of the currents evoked by a series of depolarized voltage pulses from −100 to 80 mV in 10 mV increment were normalized to the level evoked by the membrane potential of 80 mV in the control group. The holding potential was −100 mV.\nExpression of KCNQ5 and KCNQ1 channels into Xenopus oocytes—Human KCNQ5 and KCNQ1 genes were cloned into a pKSM vector that has been engineered specifically for oocyte expression. The gene sequences were confirmed by DNA sequencing. […] The constructs were linearized by XbaI restriction enzyme (NEB, Beverly, Mass.). In vitro transcription was performed with an mMESSAGE mMACHINE® kit (Ambion, Austin, Tex.) and the cRNA was purified by phenol extraction. Xenopus oocytes were injected with 46 nl solution containing approximately 9.2 ng cRNA using a Drumond Nanojet oocyte injector (Drummond Scientific Co., Broomall, Pa.). Electrophysiological recording was performed 3-7 days after injection.\nElectrophysiology—All experiments were performed at room temperature (22-23° C.) using conventional oocyte two-electrode voltage clamp recording (TEVC). […]\nData analysis—Current amplitude was measured online using HEKA Pulsefit 8.5 software. […] Data were expressed as mean±SE, and the paired student t test was performed. […]"}, "Wild type KCNQ5": {"molecular_target": "Wild type KCNQ5 (Homo sapiens, UniProt Q9NR82)", "sequence (Q9NR82 whole entry)": "as the sequence (Q9NR82 whole entry W270L, the tested form may be a part) above, with L270W counted along it", "settings": "cited from earlier work"}, "rat KCNQ5 polypeptide": {"molecular_target": "rat KCNQ5 polypeptide (Rattus norvegicus, UniProt F1LY25)", "sequence (F1LY25 1-951)": "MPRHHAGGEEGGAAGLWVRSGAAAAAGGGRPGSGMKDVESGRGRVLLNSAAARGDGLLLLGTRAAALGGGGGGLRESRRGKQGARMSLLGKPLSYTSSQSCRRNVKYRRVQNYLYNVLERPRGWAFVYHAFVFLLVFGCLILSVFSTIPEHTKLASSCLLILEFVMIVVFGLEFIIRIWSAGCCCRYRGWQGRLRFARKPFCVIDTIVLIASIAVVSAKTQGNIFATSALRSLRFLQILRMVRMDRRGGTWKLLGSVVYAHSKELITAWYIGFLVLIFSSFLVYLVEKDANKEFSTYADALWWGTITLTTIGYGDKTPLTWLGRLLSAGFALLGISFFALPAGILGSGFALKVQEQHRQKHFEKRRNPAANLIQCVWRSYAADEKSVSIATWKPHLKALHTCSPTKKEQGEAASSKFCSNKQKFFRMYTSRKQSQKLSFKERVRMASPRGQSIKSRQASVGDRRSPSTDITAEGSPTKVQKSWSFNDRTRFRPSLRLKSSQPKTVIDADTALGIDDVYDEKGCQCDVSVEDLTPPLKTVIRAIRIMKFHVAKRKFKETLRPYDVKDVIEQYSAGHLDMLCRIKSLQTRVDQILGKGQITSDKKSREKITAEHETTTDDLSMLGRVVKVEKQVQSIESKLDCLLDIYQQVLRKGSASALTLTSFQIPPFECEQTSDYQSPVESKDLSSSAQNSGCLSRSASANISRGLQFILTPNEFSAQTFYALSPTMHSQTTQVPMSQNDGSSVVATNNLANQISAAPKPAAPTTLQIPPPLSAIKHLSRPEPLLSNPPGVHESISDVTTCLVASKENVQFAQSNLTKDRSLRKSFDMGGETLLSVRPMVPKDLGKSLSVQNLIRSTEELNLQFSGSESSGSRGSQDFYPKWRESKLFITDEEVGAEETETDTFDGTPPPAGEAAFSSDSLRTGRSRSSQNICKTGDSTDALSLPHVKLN", "settings": "Jensen et al. 2005; cited from earlier work"}, "mouse KCNQ5 polypeptide": {"molecular_target": "mouse KCNQ5 polypeptide (Mus musculus, UniProt Q9JK45)", "sequence (Q9JK45 whole entry)": "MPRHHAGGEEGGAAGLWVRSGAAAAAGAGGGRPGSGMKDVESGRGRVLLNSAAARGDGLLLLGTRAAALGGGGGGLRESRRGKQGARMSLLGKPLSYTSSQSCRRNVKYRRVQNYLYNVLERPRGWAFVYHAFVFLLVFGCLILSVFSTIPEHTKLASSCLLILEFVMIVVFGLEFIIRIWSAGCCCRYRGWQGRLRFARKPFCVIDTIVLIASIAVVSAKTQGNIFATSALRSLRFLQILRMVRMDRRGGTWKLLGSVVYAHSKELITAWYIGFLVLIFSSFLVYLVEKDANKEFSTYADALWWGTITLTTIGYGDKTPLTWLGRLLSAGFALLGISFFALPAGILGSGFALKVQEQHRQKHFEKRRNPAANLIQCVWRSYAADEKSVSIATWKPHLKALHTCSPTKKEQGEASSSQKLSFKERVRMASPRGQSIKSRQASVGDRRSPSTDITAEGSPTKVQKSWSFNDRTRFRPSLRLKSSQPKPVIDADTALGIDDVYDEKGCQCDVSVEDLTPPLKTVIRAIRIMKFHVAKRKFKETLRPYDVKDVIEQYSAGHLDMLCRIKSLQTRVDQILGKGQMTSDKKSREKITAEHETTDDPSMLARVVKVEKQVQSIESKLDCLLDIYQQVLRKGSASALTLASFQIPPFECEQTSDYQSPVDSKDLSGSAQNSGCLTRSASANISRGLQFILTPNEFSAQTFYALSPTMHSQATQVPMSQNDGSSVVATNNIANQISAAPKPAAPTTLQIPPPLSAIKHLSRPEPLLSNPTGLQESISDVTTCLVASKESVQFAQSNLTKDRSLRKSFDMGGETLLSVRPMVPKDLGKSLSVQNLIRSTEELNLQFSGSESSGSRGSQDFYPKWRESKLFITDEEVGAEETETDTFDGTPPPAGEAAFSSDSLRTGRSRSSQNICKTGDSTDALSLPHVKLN", "settings": "Jensen et al. 2005; cited from earlier work"}, "KCNQ1": {"molecular_target": "KCNQ1 (Homo sapiens, UniProt P51787)", "settings": "background statement; cited from earlier work"}, "KCNQ1(L171W)": {"molecular_target": "T3, KCNQ1(L171W) (Homo sapiens, UniProt P51787, L266W)", "T3 sequence (P51787 with tags, fused parts or gaps L266W)": "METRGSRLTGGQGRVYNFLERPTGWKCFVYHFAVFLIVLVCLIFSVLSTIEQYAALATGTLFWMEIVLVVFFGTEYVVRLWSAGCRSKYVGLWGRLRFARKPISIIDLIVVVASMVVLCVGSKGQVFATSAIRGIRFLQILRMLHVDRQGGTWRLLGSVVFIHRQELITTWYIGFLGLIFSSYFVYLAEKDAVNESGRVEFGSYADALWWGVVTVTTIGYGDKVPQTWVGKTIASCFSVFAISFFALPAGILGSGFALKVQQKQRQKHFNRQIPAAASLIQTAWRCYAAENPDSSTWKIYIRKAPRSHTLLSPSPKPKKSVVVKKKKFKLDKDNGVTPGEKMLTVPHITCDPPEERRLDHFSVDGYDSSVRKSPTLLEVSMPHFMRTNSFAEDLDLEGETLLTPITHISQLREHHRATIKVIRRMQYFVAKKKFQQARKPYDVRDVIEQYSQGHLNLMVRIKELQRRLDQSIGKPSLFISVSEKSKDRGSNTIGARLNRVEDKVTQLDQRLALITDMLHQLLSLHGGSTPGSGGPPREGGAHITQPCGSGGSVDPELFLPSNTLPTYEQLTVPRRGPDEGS", "assay": "Two-electrode voltage clamp in Xenopus oocytes, KCNQ1(L171W)"}}, "note": "Entries after “also recorded” stand apart in the source; their conditions may differ. Like-named read-outs stand apart in the source and are kept apart here.", "data": [{"smiles": "CCOC(=O)Nc1ccc(NCc2ccc(F)cc2)cc1N", "note": "[retigabine, N-(2-amino-4-(4-fluorobenzylamino)-phenyl)carbamic acid ethyl ester]", "values": [{"measurement": "current (I)-voltage relationship in the absence vs presence of retigabine", "setting": "[1]; 5 min after the application, p>0.05", "value": "No significant difference"}, {"measurement": "change of current amplitude and voltage dependent activation", "setting": "[1]; 5 min application period, FIG. 1C", "value": "neither current amplitude nor voltage dependent activation changed significantly"}, {"measurement": "effect on channel activities", "setting": "[1]; oocytes, FIGS. 1A and 1B", "value": "no longer augmented the channel activities"}, {"measurement": "response to retigabine (fold increase IΔ/I0 in current amplitude)", "setting": "KCNQ5(W270L)", "value": "significantly less response; also recorded: completely lost the response"}, {"measurement": "response to retigabine (fold increase IΔ/I0 in current amplitude)", "setting": "KCNQ5(A269T)", "value": "significantly less response"}, {"measurement": "channel current induced by depolarization to 40 mV", "setting": "[2]; 5 min of bath application", "value": "remained unchanged"}, {"measurement": "current amplitude and voltage dependence of the currents (I-V curves before and after treatment)", "setting": "[2]; FIG. 2A right panel, FIG. 2C", "value": "Neither current amplitude nor voltage dependence of the currents was modified"}, {"measurement": "effect on the mutant channel", "setting": "[2]; FIG. 2B", "value": "no longer had effect"}, {"measurement": "current (I)-voltage relationship in the absence vs presence of retigabine", "setting": "[2]; p>0.05", "value": "No significant difference"}, {"measurement": "response of channel current", "setting": "KCNQ1 wild-type; 50 μM retigabine", "value": "no significant response"}, {"measurement": "response of channel current", "setting": "KCNQ1 wild-type; 200 μM retigabine", "value": "slightly inhibitory response"}, {"measurement": "responsiveness of the channel to retigabine", "setting": "Wild type KCNQ5; Wickendon et al. 2001", "value": "responsive"}, {"measurement": "opening of KCNQ channels", "setting": "Wild type KCNQ5; background statement", "value": "open"}, {"measurement": "sensitivity of the channel to retigabine", "setting": "rat KCNQ5 polypeptide", "value": "sensitive"}, {"measurement": "sensitivity of the channel to retigabine", "setting": "mouse KCNQ5 polypeptide", "value": "sensitive"}, {"measurement": "enhancing effect on the channel", "setting": "KCNQ1", "value": "no enhancing effect"}, {"measurement": "steady state current amplitude", "setting": "KCNQ1(L171W); 50 μM retigabine, FIG. 4B", "value": "clearly reduced"}, {"measurement": "voltage dependence of channel activation", "setting": "KCNQ1(L171W); FIG. 4D and inset (200 μM)", "value": "modified the voltage dependence of channel activation"}, {"measurement": "activation kinetics of the current", "setting": "KCNQ1(L171W); current evoked at 80 mV, FIG. 4C", "value": "from a single to a double exponential activation time course"}, {"measurement": "kind of effect on the channel (activated or blocked)", "setting": "KCNQ1(L171W); oocytes, TEVC", "value": "blocked"}, {"measurement": "inhibition at 200 µM", "setting": "KCNQ1(L171W); read-out: inhibition of the steady-state current", "value": 62.5, "unit": "%"}]}]}
